Columns and labels:
recombinant HlGST = target: T1, recombinant HlGST (Haemaphysalis longicornis, UniProt Q6JVN0); assay: CDNB conjugation kinetics with […] acaricide; type: biochemical; conditions: 5 mM glutathione, CDNB 0.125-2 mM, pH 7.5, 25 °C
T1 construct: gene GST
T1 sequence (Q6JVN0 1-223): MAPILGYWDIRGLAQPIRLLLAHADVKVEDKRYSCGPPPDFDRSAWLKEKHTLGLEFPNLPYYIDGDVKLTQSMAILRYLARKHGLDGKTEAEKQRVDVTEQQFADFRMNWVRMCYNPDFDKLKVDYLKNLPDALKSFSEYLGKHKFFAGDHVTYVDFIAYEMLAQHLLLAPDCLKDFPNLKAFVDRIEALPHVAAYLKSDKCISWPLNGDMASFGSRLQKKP

recombinant HlGST2 = target: T2, recombinant HlGST2 (Haemaphysalis longicornis, UniProt A0A2Z6FA39); assay: CDNB conjugation kinetics with […] acaricide; type: biochemical; conditions: inhibitor, noncompetitive, 5 mM glutathione, CDNB 0.125-2 mM, pH 7.5, 25 °C
T2 construct: gene GST
T2 sequence (A0A2Z6FA39 1-230): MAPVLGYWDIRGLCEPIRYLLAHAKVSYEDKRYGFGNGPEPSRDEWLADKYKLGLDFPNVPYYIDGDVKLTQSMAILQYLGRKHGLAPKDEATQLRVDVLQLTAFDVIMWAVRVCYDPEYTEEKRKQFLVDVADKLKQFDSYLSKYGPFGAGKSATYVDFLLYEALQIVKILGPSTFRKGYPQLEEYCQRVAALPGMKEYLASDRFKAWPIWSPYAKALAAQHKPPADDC

Compound	CDNB conjugation kinetics with 0.1 mM acaricide (recombinant HlGST; apparent activator (lowers Km for CDNB))	CDNB conjugation kinetics with 0.1 mM acaricide (recombinant HlGST; inhibitor, uncompetitive)	CDNB conjugation kinetics with 0.1 mM acaricide (recombinant HlGST2)
CCOP(=S)(OCC)Oc1ccc2c(C)c(Cl)c(=O)oc2c1 [coumaphos]	Coumaphos significantly decreased the Km of recombinant HlGST, indicating the apparent activation		
CC1(C)C(C=C(Cl)c2ccc(Cl)cc2)C1C(=O)OC(C#N)c1ccc(F)c(Oc2ccccc2)c1 (centres unmarked) [flumethrin]		flumethrin and cypermethrin showed uncompetitive inhibition of recombinant HlGST	
CCOP(=S)(OCC)Oc1nc(Cl)c(Cl)cc1Cl [chlorpyrifos]			chlorpyrifos and cypermethrin showed noncompetitive inhibition of recombinant HlGST2
CC1(C)C(C=C(Cl)Cl)C1C(=O)OC(C#N)c1cccc(Oc2ccccc2)c1 (centres unmarked) [cypermethrin]		flumethrin and cypermethrin showed uncompetitive inhibition of recombinant HlGST	chlorpyrifos and cypermethrin showed noncompetitive inhibition of recombinant HlGST2

— PMC6085608, “Glutathione S-transferases play a role in the detoxification of flumethrin and chlorpyrifos in Haemaphysalis longicornis” (Parasites & Vectors, 2018)
